Experimental data published in patent US20040087602A1, “Stabilized brivudine topical formulations” (priority 2001, published 2004).
“And” between values parts separate entries of the source, which are not always exact repeats. Identical values can stand only once.

What was measured:
[1] = tested on: 23 clinical HSV-1 strains; conditions: mean of 23 clinical HSV-1 strains, in vitro; cited from earlier work
13 clinical VZV strains = conditions: mean of 13 clinical VZV strains, in vitro; cited from earlier work
[2] = tested on: 20 clinical isolates (HSV-1); conditions: two similar assays, one value per assay; cited from earlier work
[3] = photo-stabilization test of cream, UV-lamp irradiation; assay type: physicochemical; conditions: 2 hours UV-lamp
Description: Studies of photo-stabilization were conducted encapsulating the active ingredient in cyclodextrin-complexes (e.g. α-, β-, γ-cyclodextrin-complexes) or adding different stabilizers. Known photo-stabilizers like anti-oxidants (e.g. propylgallate, alfa-liponic acid), chemical UV-filters (e.g. octyl triazone) and pigments (titanium dioxide, zinc oxid, iron oxid yellow) were used. The efficiency of photo-stabilization was tested by determination of the content of brivudine after 2 hours of irradiation with UV-lamp (dose of 1 MED [Minimal […] dose, 24.8 Wh/m^2, UVA-light]. UVA-light was applied directly to the cream without primary packaging The higher the content of unchanged brivudine after irradiation, the better the photo-stability. […] The pigment iron oxide yellow at a concentration 20% w/w also gave about 85% brivudine content.

[4] = photodegradation according to ICH guideline CPMP/ICH/279/95; assay type: physicochemical; conditions: unpacked samples without stabilizer, 9.6 hours at 49.5 W/m^2 (dose 475 Wh/m^2)
From the text: The degradation of brivudine was investigated according to the ICH (International Conference on Harmonization) guideline CPMP/ICH/279/95. […] The brivudine content decreases from about 100% to about 70% after irradiation. At the same time the samples show an increase of known and unknown impurities of about 30%.

Structure (SMILES)	mean IC50 in a panel of 23 clinical HSV-1 strains [1] [mg/L]	mean IC50 in 13 clinical VZV strains (13 clinical VZV strains) [mg/L]	mean IC50 in a panel of 20 clinical isolates [2]	brivudine content after irradiation ([3]; iron oxide yellow 20% w/w, 1 MED)	brivudine final content after irradiation ([3]; titanium dioxide 20% w/w, 1 MED)	brivudine content after irradiation, % of the initial concentration ([3]; without photo-stabilizer, 5% w/w brivudine cream, 1 MED (24.8 Wh/m^2, UVA))	increase of known and unknown impurities [4]	brivudine content after irradiation ([4]; from about 100%)
Nc1nc2c(ncn2COCCO)c(=O)[nH]1 [acyclovir]	0.92	0.2	–	–	–	–	–	–
Nc1nc2c(ncn2CCC(CO)CO)c(=O)[nH]1 [penciclovir]	–	0.91	0.6 mg/L and 0.8 mg/L	–	–	–	–	–
O=c1[nH]c(=O)n([C@H]2C[C@H](O)[C@@H](CO)O2)cc1/C=C/Br [brivudine, (E)-5-(2-bromovinyl)-2′-deoxyuridine]	0.52	0.001	–	about 85%	about 85%	about 40%	about 30%	about 70%
